Reference: patent US11401516B2, “Channel modulators” (AUCKLAND UNISERVICES LIMITED, priority 2014, dated 2022)

What was measured:
[1] = test system: Cx43 hemichannel and pannexin channel mediated ATP release from hCMVEC cells; assay: In vitro ischaemia injury-reperfusion ATP assay; assay type: cell-based, human; conditions: 2-hour injury then 2-hour reperfusion; 100 μM CBX, 100 μM Peptide5, 1 mM Probenecid, 10 μM Tonabersat
Procedure: (§1) Using an in vitro ischemia injury model, the Cx43 hemichannel and pannexin channel mediated ATP release was differentiated using the connexin hemichannel blocking mimetic peptide5 at 100 μM concentration (S. J. O'Carroll, et al., Cell communication & adhesion 15, 27 (May, 2008)) and 1 mM Probenecid (W. R. Silverman et al., The Journal of biological chemistry 284, 18143 (Jul. 3, 2009)).
Human cerebral microvascular endothelial cells (hCMVEC) were trypsinised (TrypLE Express, Life technologies) and plated at a density of 0.025×10^6 cells per well in a collagen-coated 12-well plate (1 μg/cm2) a day prior to the experiment. Cells were incubated in culture medium overnight. Hypoxic, acidic, ion-shifted Ringer injury solution that mimics ionic concentrations and acid-base shifts of the interstitial space in hypoxic-ischemic brains (A. Bondarenko, et al., Glia 34, 143 (Apr. 15, 2001)) was used to trigger hemichannel opening. […] ATP concentration in the samples was determined using a Luciferin/luciferase bioluminescence reaction (ATP Determination Kit, Molecular Probes) and detected using a luminescence plate reader (VICTOR X, Perkin Elmer #2030-0010). Standard curves were generated in each experiment from an ATP standard (500 nM) to quantify the concentration of ATP in the test samples. […]

[2] = test system: Cx43 hemichannel and pannexin channel mediated ATP release from hCMVEC cells; assay: In vitro ischaemia injury ATP assay; assay type: cell-based, human; conditions: for ATP release, percentage of the injury control: 2-hour injury
Procedure: as §1
Human cerebral microvascular endothelial cells (hCMVEC) were trypsinised (TrypLE Express, Life technologies) and plated at a density of 0.025×10^6 cells per well in a collagen-coated 12-well plate (1 μg/cm2) a day prior to the experiment. Cells were incubated in culture medium overnight. Hypoxic, acidic, ion-shifted Ringer injury solution that mimics ionic concentrations and acid-base shifts of the interstitial space in hypoxic-ischemic brains (A. Bondarenko, et al., Glia 34, 143 (Apr. 15, 2001)) was used to trigger hemichannel opening. The injury solution (in mM): 38 NaCl, 13 NaHCO3, 3 Na-gluconate, 65 K-gluconate, 38 NMDG-Cl, 1 NaH2PO4, 1.5 MgCl2, was bubbled in N2 gas (>99% purity, 20 L/min) for 5 minutes and pH adjusted to 6.6 using 5 M HCl. Control solution that mimics physiological conditions contained (in mM): 124 NaCl, 3 KCl, 26 NaHCO3, […], 1 NaH2PO4, 1.3 CaCl2, 1.5 MgCl2, and 10 Glucose, and pH 7.4 was adjusted using 5 M HCl (Bondarenko, 2001). […] Following a 2-hour injury the solutions were immediately placed on ice. In the injury and reperfusion model, hCMVEC cells were incubated in 500 μL of normal solution or injury solution for 2 hours at 37° C. in 95% O2 and 5% CO2. Following 2 hour injury, the solutions were discarded and replaced with 500 μL of the normal solution, or Tonabersat (10 μM) dissolved in normal solution, and were incubated for 2 hours at 37° C. in 95% O2 and 5% CO2. These solutions were also then immediately placed on ice. Peptide5 (100 μM)+/−Probenecid (1 mM) were used as controls for both injury and injury-reperfusion models. ATP concentration in the samples was determined using a Luciferin/luciferase bioluminescence reaction (ATP Determination Kit, Molecular Probes) and detected using a luminescence plate reader (VICTOR X, Perkin Elmer #2030-0010). Standard curves were generated in each experiment from an ATP standard (500 nM) to quantify the concentration of ATP in the test samples. The data is presented as mean±standard error relative to the injury or injury-reperfusion control. Statistically significant differences between samples were identified using one-way analysis of variance and Tukey's multiple comparisons test.

SMILES: CC(=O)c1ccc2c(c1)[C@H](NC(=O)c1ccc(F)c(Cl)c1)[C@H](O)C(C)(C)O2 [Tonabersat, N-[(3S,4S)-6-acetyl-3-hydroxy-2,2-dimethyl-3,4-dihydrochromen-4-yl]-3-chloro-4-fluorobenzamide]
- ATP release, percentage of the injury-reperfusion (IR) control [1]: 68.9±6.9%
- difference between CBX and 10 μM Tonabersat in 1 mM Probenecid [2]: 14.9±4%
- ATP release, percentage of the injury control ([2]; 0.1 μM Tonabersat in combination with 1 mM Probenecid): 85.9±2.4%
- ATP release from hCMVEC cells ([2]; 0.1 μM to 100 μM Tonabersat in the absence of 1 mM Probenecid): did not reduce ATP release
- ATP release, percentage of the injury control ([2]; 1 μM Tonabersat in combination with 1 mM Probenecid): 75.9±2.3%
- ATP release, percentage of the injury control ([2]; 10 μM Tonabersat in combination with 1 mM Probenecid): 58.5±1.9%
- ATP release, percentage of the injury control ([2]; 100 μM Tonabersat in combination with 1 mM Probenecid): 70.5±3.9%
- difference in inhibition, 10 μM versus 100 μM Tonabersat ([2]; each with 1 mM Probenecid): 12.1±3.2%
